Patent US11541028B2, “Peptide pharmaceuticals for treatment of NASH and other disorders” (Mederis Diabetes LLC, priority 2018, dated 2023)
pEC50: −log10 of the molar value.

What was measured:
human glucagon receptor = target: T1, human glucagon receptor (Homo sapiens, UniProt P47871); test: DiscoveRx LeadHunter cellular assay, cAMP stimulation, glucagon receptor in CHO cells; format: cell-based
T1 construct: host or cells: CHO cells
Description: (§1) A further series of cellular assays was carried out with standard cellular assays (DiscoveRx, LeadHunter assays) using readout of cAMP stimulation or arrestin activation. Compounds were weighed precisely in an amount of about 1 mg and shipped to DiscoveRx for dilution and assay.

human GLP-1 receptor = target: T2, human GLP-1 receptor (Homo sapiens, UniProt P43220); test: DiscoveRx LeadHunter cellular assay, cAMP stimulation, GLP-1 receptor in CHO cells; format: cell-based; conditions: human GLP-1 receptor in CHO cells (DiscoveRx); read-out: EC50 cAMP GLP-1 R
T2 construct: host or cells: CHO cells
T2 sequence (P43220 24-463): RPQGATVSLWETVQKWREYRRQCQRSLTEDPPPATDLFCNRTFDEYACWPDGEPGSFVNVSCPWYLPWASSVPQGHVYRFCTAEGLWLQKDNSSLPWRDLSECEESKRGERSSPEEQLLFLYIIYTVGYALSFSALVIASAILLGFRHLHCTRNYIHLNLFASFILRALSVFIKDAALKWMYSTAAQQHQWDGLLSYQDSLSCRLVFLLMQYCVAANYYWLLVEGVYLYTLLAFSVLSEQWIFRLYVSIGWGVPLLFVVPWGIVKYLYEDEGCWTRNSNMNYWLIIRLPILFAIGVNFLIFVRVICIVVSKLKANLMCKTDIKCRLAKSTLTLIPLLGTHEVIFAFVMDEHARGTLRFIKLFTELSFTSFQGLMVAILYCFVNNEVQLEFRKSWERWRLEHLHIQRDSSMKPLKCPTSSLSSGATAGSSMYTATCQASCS
Description: as §1

T1 sequence (P47871 26-477): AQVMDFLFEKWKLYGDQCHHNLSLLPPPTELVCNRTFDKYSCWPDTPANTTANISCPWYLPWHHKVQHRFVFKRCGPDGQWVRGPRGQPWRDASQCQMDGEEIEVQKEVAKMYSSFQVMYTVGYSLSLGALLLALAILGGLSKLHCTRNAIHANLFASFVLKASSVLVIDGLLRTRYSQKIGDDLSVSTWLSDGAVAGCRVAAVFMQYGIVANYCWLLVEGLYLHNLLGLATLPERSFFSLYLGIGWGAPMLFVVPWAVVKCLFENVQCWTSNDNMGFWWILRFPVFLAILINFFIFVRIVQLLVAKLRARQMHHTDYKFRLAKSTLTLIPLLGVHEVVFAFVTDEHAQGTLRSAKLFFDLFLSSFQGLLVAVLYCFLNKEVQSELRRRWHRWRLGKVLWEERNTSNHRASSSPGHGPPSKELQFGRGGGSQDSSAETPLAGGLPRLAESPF

CCCCCCCCCCCCO[C@@H]1O[C@H](C(=O)NCCCC[C@H](NC(=O)[C@@H](NC(=O)[C@H](Cc2ccccc2)NC(=O)[C@H](CCC(=O)O)NC(=O)[C@@H]2CCCCNC(=O)CC[C@H](NC(=O)[C@H](CC(=O)O)NC(=O)[C@H](CC(C)C)NC(=O)[C@H](Cc3ccc(O)cc3)NC(=O)[C@H](CCCCN)NC(=O)[C@H](CO)NC(=O)[C@H](Cc3ccc(O)cc3)NC(=O)[C@H](CC(=O)O)NC(=O)[C@H](CO)NC(=O)[C@@H](NC(=O)[C@H](Cc3ccccc3)NC(=O)[C@@H](NC(=O)CNC(=O)[C@H](CCC(N)=O)NC(=O)C(C)(C)NC(=O)[C@@H](N)Cc3c[nH]cn3)[C@@H](C)O)[C@@H](C)O)C(=O)N[C@@H](CCC(N)=O)C(=O)N[C@@H](C)C(=O)N[C@@H](C)C(=O)N2)[C@@H](C)CC)C(=O)N[C@@H](Cc2c[nH]c3ccccc23)C(=O)N[C@@H](CC(C)C)C(=O)N[C@@H](CC(C)C)C(=O)N[C@@H](CCC(N)=O)C(=O)N[C@H](C(=O)NCCOCCOCCOCCOCCC(=O)O)[C@@H](C)O)[C@@H](O)[C@H](O)[C@H]1O [EU-A1633]
pEC50 (human glucagon receptor): 10.28
pEC50 (human GLP-1 receptor): 11.10

CCCCCCCCCCCCCCO[C@@H]1O[C@H](C(=O)NCCCC[C@H](NC(=O)[C@@H](NC(=O)[C@H](Cc2ccccc2)NC(=O)[C@H](CCC(=O)O)NC(=O)[C@@H]2CCCCNC(=O)CC[C@H](NC(=O)[C@H](CC(=O)O)NC(=O)[C@H](CC(C)C)NC(=O)[C@H](Cc3ccc(O)cc3)NC(=O)[C@H](CCCCN)NC(=O)[C@H](CO)NC(=O)[C@H](Cc3ccc(O)cc3)NC(=O)[C@H](CC(=O)O)NC(=O)[C@H](CO)NC(=O)[C@@H](NC(=O)[C@H](Cc3ccccc3)NC(=O)[C@@H](NC(=O)CNC(=O)[C@H](CCC(N)=O)NC(=O)C(C)(C)NC(=O)[C@@H](N)Cc3c[nH]cn3)[C@@H](C)O)[C@@H](C)O)C(=O)N[C@@H](CCC(N)=O)C(=O)N[C@@H](C)C(=O)N[C@@H](C)C(=O)N2)[C@@H](C)CC)C(=O)N[C@@H](Cc2c[nH]c3ccccc23)C(=O)N[C@@H](CC(C)C)C(=O)N[C@@H](CC(C)C)C(=O)N[C@@H](CCC(N)=O)C(=O)N[C@H](C(=O)NCCOCCOCCOCCOCCC(=O)O)[C@@H](C)O)[C@@H](O)[C@H](O)[C@H]1O [EU-A1634]
pEC50 (human glucagon receptor): 9.31
pEC50 (human GLP-1 receptor): 10.28

CCCCCCCCCCCCCCCCO[C@@H]1O[C@H](C(=O)NCCCC[C@H](NC(=O)[C@@H](NC(=O)[C@H](Cc2ccccc2)NC(=O)[C@H](CCC(=O)O)NC(=O)[C@@H]2CCCCNC(=O)CC[C@H](NC(=O)[C@H](CC(=O)O)NC(=O)[C@H](CC(C)C)NC(=O)[C@H](Cc3ccc(O)cc3)NC(=O)[C@H](CCCCN)NC(=O)[C@H](CO)NC(=O)[C@H](Cc3ccc(O)cc3)NC(=O)[C@H](CC(=O)O)NC(=O)[C@H](CO)NC(=O)[C@@H](NC(=O)[C@H](Cc3ccccc3)NC(=O)[C@@H](NC(=O)CNC(=O)[C@H](CCC(N)=O)NC(=O)C(C)(C)NC(=O)[C@@H](N)Cc3c[nH]cn3)[C@@H](C)O)[C@@H](C)O)C(=O)N[C@@H](CCC(N)=O)C(=O)N[C@@H](C)C(=O)N[C@@H](C)C(=O)N2)[C@@H](C)CC)C(=O)N[C@@H](Cc2c[nH]c3ccccc23)C(=O)N[C@@H](CC(C)C)C(=O)N[C@@H](CC(C)C)C(=O)N[C@@H](CCC(N)=O)C(=O)N[C@H](C(=O)NCCOCCOCCOCCOCCC(=O)O)[C@@H](C)O)[C@@H](O)[C@H](O)[C@H]1O [EU-A1635]
pEC50 (human glucagon receptor): 8.70
pEC50 (human GLP-1 receptor): 10.15

CCCCCCCCCCCCO[C@@H]1O[C@H](C(=O)NCCCC[C@H](NC(=O)[C@@H](NC(=O)[C@H](Cc2ccccc2)NC(=O)[C@H](CCC(=O)O)NC(=O)[C@@H]2CCCCNC(=O)CC[C@H](NC(=O)[C@H](CC(=O)O)NC(=O)[C@H](CC(C)C)NC(=O)[C@H](Cc3ccc(O)cc3)NC(=O)[C@H](CCCCN)NC(=O)[C@H](CO)NC(=O)[C@H](Cc3ccc(O)cc3)NC(=O)[C@H](CC(=O)O)NC(=O)[C@H](CO)NC(=O)[C@@H](NC(=O)[C@H](Cc3ccccc3)NC(=O)[C@@H](NC(=O)CNC(=O)[C@H](CCC(N)=O)NC(=O)C(C)(C)NC(=O)[C@@H](N)Cc3c[nH]cn3)[C@@H](C)O)[C@@H](C)O)C(=O)N[C@@H](CCC(N)=O)C(=O)N[C@@H](C)C(=O)N[C@@H](C)C(=O)N2)[C@@H](C)CC)C(=O)N[C@@H](Cc2c[nH]c3ccccc23)C(=O)N[C@@H](CC(C)C)C(=O)N[C@@H](CC(C)C)C(=O)N[C@@H](CCC(N)=O)C(=O)N[C@H](C(=O)NCCOCCOCCOCCOCCOCCOCCOCCOCCC(=O)O)[C@@H](C)O)[C@@H](O)[C@H](O)[C@H]1O [EU-A1645]
pEC50 (human glucagon receptor): 10.04
pEC50 (human GLP-1 receptor): 10.54

CCCCCCCCCCCCCCO[C@@H]1O[C@H](C(=O)NCCCC[C@H](NC(=O)[C@@H](NC(=O)[C@H](Cc2ccccc2)NC(=O)[C@H](CCC(=O)O)NC(=O)[C@@H]2CCCCNC(=O)CC[C@H](NC(=O)[C@H](CC(=O)O)NC(=O)[C@H](CC(C)C)NC(=O)[C@H](Cc3ccc(O)cc3)NC(=O)[C@H](CCCCN)NC(=O)[C@H](CO)NC(=O)[C@H](Cc3ccc(O)cc3)NC(=O)[C@H](CC(=O)O)NC(=O)[C@H](CO)NC(=O)[C@@H](NC(=O)[C@H](Cc3ccccc3)NC(=O)[C@@H](NC(=O)CNC(=O)[C@H](CCC(N)=O)NC(=O)C(C)(C)NC(=O)[C@@H](N)Cc3c[nH]cn3)[C@@H](C)O)[C@@H](C)O)C(=O)N[C@@H](CCC(N)=O)C(=O)N[C@@H](C)C(=O)N[C@@H](C)C(=O)N2)[C@@H](C)CC)C(=O)N[C@@H](Cc2c[nH]c3ccccc23)C(=O)N[C@@H](CC(C)C)C(=O)N[C@@H](CC(C)C)C(=O)N[C@@H](CCC(N)=O)C(=O)N[C@H](C(=O)NCCOCCOCCOCCOCCOCCOCCOCCOCCC(=O)O)[C@@H](C)O)[C@@H](O)[C@H](O)[C@H]1O [EU-A1646]
pEC50 (human glucagon receptor): 9.48
pEC50 (human GLP-1 receptor): 10.54

CCCCCCCCCCCCCCCCO[C@@H]1O[C@H](C(=O)NCCCC[C@H](NC(=O)[C@@H](NC(=O)[C@H](Cc2ccccc2)NC(=O)[C@H](CCC(=O)O)NC(=O)[C@@H]2CCCCNC(=O)CC[C@H](NC(=O)[C@H](CC(=O)O)NC(=O)[C@H](CC(C)C)NC(=O)[C@H](Cc3ccc(O)cc3)NC(=O)[C@H](CCCCN)NC(=O)[C@H](CO)NC(=O)[C@H](Cc3ccc(O)cc3)NC(=O)[C@H](CC(=O)O)NC(=O)[C@H](CO)NC(=O)[C@@H](NC(=O)[C@H](Cc3ccccc3)NC(=O)[C@@H](NC(=O)CNC(=O)[C@H](CCC(N)=O)NC(=O)C(C)(C)NC(=O)[C@@H](N)Cc3c[nH]cn3)[C@@H](C)O)[C@@H](C)O)C(=O)N[C@@H](CCC(N)=O)C(=O)N[C@@H](C)C(=O)N[C@@H](C)C(=O)N2)[C@@H](C)CC)C(=O)N[C@@H](Cc2c[nH]c3ccccc23)C(=O)N[C@@H](CC(C)C)C(=O)N[C@@H](CC(C)C)C(=O)N[C@@H](CCC(N)=O)C(=O)N[C@H](C(=O)NCCOCCOCCOCCOCCOCCOCCOCCOCCC(=O)O)[C@@H](C)O)[C@@H](O)[C@H](O)[C@H]1O [EU-A1647]
pEC50 (human glucagon receptor): 8.72
pEC50 (human GLP-1 receptor): 9.95
